Results as given in patent US10858357B2, “Water-soluble myosin 2 inhibitors for the treatment of neurological, neuropathic or psychiatric diseases” (PARIS SCIENCES ET LETTRES-QUARTIER LATIN, priority 2016, dated 2020).
≈ marks a conversion by molar mass, not a printed value.

Key:
[1] = test system: cannabinoid-induced working memory loss; assay: Novel object recognition (NOR) test with CP55,940; type: in vivo; settings: CP55,940 1 hour prior to familiarization, no neurelaxin-A
Experimental: In this experiment, a novel object recognition (NOR) test was performed.
In this test animals are presented to two objects and it will explore them for a while. After, one of the objects is changed for a new and different one. Under normal circumstances animals will be attracted to the novel object and will spend more time exploring it, by comparison to the older and already known object. Animals with memory deficit will explore both objects equally.
The synthetic cannabinoid CB1R agonist CP55,940 is administrated 1 hour prior to the familiarization step. Thirty minutes prior to the familiarization animals are either treated or not with neurelaxin-A.

[2] = cited from earlier work; for solubility: Képiró et al., Angew. Chem. Int. Ed., 2014
[3] = test system: EGFP-α-tubulin H2B-mCherry HeLa Kyoto cells; assay: HeLa cell toxicity, 12-hour confocal time-lapse imaging; type: cell-based, human; settings: time-lapse imaging, concentration not given
Experimental: For phototoxicity experiments, confocal time-lapse imaging of HeLa Kyoto H2B-mCherry eGFP-α-tubulin cells for 12 hours was performed in DMEM further supplemented with 25 mM HEPES in order to achieve CO2 independent media. Confocal time-lapse imaging was performed on a Zeiss LSM 710 using a Plan Apo 20×/0.8 objective, with the following parameters: 2% laser intensity at λexc=488 nm, 3% laser intensity at λexc=543 nm, 1.2× zoom, average 4, line step 1, 1000×1000 pixels, 0.35 μm pixel size, 0.65 μs dwell time, 3 slice/z-stack with 7 μm between slices at every 10 minutes.
To test the cytotoxicity of neurelaxin-A in live-cell fluorescence microscopy, time-lapse EGFP-α-tubulin H2B-mCherry labeled HeLa Kyoto cells were imaged in a confocal microscope (FIG. 4a).
Cells were treated with 50 μM neurelaxin-A and imaged for 12 hours applying 3 z-sections every 10 minutes.

[4] = test system: myosin 2; settings: Lucas-Lopez et al., 2008; cited from earlier work

Compound: CCCCCCC(C)(C)c1ccc([C@@H]2C[C@H](O)CC[C@H]2CCCO)c(O)c1 [CP55,940, reference compound]
- NOR test: exploration of familiar and novel object [1]: spend similar time exploring both objects

Compound: Cc1ccc2c(c1)C(=O)C1(O)CCN(c3ccccc3)C1=N2 (stereo not drawn) [Blebbistatin]
- solubility [2]: around 20 μM
- water solubility: concentration above which slow precipitation is observed ([2]; background statement): 10 µM (≈ 2.92 µg/mL)
- cytotoxic phenotype in HeLa Kyoto cells (positive control) [3]: cells round up from the surface and eventually die

Compound: O=C1c2ccc([N+](=O)[O-])cc2N=C2N(c3ccccc3)CCC12O (stereo not drawn) [Nitroblebbistatin]
- IC50 [4]: 27.5 µM

Compound: Cc1ccc2c(c1)C(=O)C1(O)CCN(c3ccc([N+](=O)[O-])cc3)C1=N2 (stereo not drawn) [Para-nitroblebbistatin]
- solubility [2]: around 20 μM
